# According to PMC11433870, “Neurotoxicity, Neuroprotection, In Vitro MAOA/MAOB Inhibitory Activity Assessment, Molecular Docking, and Permeability Assay Studies of Newly Synthesized Hydrazones Containing a Pyrrole Ring” (Molecules, 2024):
# Where “and” joins values, the source holds several entries; their conditions need not be identical. Identical values can stand only once.
# Tests used:
# [1] = system: isolated rat brain synaptosomes; assay: 6-OHDA-induced neurotoxicity model: synaptosomal viability; type: cell-based; conditions: toxic agent applied alone at 150 µM, compared to control (untreated synaptosomes)
# Method: (§1) Synaptosomes and mitochondria were obtained by multiple, subcellular fractionation using a Percoll gradient. The necessary brain homogenate was prepared and centrifuged at 1000× g for 5 min at +4 °C. After centrifugation, the supernatants were collected and centrifuged again at 1000× g for 5 min at +4 °C. The supernatants from the two centrifugations were mixed and distributed into four tubes. The tubes were centrifuged at 10,000× g for 20 min at +4 °C three times. The last two centrifugations were for purification of synaptosomes and mitochondria.
# The isolation of the required fractions was based on the formation of a colloidal solution of silicon (Percoll), as per the procedure, including: 1. Preparation of a 90% stock solution of Percoll, followed by preparation of two Percoll solutions of different percentages: 16% and 10%. An amount of 4 mL of each of the prepared 16% and 10% Percoll solutions was placed in six test tubes. A 90% Percoll (7.5% Percoll) was added to the precipitate obtained from the previous step from the last centrifugation. The obtained mixtures in all 12 tubes were centrifuged for 20 min at 15,000× g +4 °C. […]
# After 1 h incubation with the substances and toxic agent, synaptosomes were centrifuged on a microcentrifuge for 1 min at 15,000× g. […] After dissolution, the amount of formazan is measured spectrophotometrically at λ = 580 nm.
# [2] = system: isolated rat brain synaptosomes; assay: 6-OHDA-induced neurotoxicity model: GSH level; type: cell-based; conditions: for preservation of GSH level: 50 µM in combination with 6-OHDA (150 µM), compared to the toxic agent
# Method: as §1
# (§2) The isolation of the required fractions was based on the formation of a colloidal solution of silicon (Percoll), as per the procedure, including: 1. Preparation of a 90% stock solution of Percoll, followed by preparation of two Percoll solutions of different percentages: 16% and 10%. An amount of 4 mL of each of the prepared 16% and 10% Percoll solutions was placed in six test tubes. A 90% Percoll (7.5% Percoll) was added to the precipitate obtained from the previous step from the last centrifugation. The obtained mixtures in all 12 tubes were centrifuged for 20 min at 15,000× g +4 °C. After centrifugation, three layers are formed in the tubes. The bottom layer contains mitochondria, the top layer contains lipids, and the middle layer—at the 16% to 10% Percoll limit—contains synaptosomes. The respective layer from each tube is removed through a glass pasteurizer and collected into one. Buffer B + glucose is added to it. The mixture was centrifuged at 10,000× g for 20 min at +4 °C. Thus, the isolation buffer is exchanged with the incubation buffer. After centrifugation, the pellet where the synaptosomes are mixed and made up with buffer B + glucose.
# (§3) Synaptosomes and mitochondria were incubated with the test substances at a concentration of 50 µM for 1 h.
# Synaptosomes were incubated with 6-OHDA (150 μM) for 1 h.
# (§4) After precipitation of the proteins with trichloroacetic acid, the thiol groups in the supernatant were determined by DTNB, which produced a yellow-colored compound that absorbs light at λ = 412 nm. After incubation, synaptosomes were centrifuged at 4000× g for 3 min. The supernatant was removed and the pellet taken for GSH determination. It was treated with 5% trichloroacetic acid, then left for 10 min on ice. It was centrifuged at 8000× g for 10 min (2 °C). The supernatant is taken for GSH determination and frozen at −20 °C. Immediately before measurement, the samples are neutralized with 5N NaOH [58].
# [3] = system: isolated rat brain synaptosomes; assay: Neurotoxicity: synaptosomal viability (MTT), substances applied alone; type: cell-based; conditions: 50 µM applied alone, 1 h, compared to control (untreated synaptosomes)
# Method: as §1, §2, §3
# After 1 h incubation with the substances and toxic agent, synaptosomes were centrifuged on a microcentrifuge for 1 min at 15,000× g. The pellet was mixed gently with buffer B + glucose, and the supernatant where 6-OHDA was discarded to prevent oxidation of MTT. Centrifuge again at 15,000× g for 1 min. After the second wash, buffer B + glucose was added to the pellet. To the ‘washed’ synaptosomes, 60 µL of MTT solution is added. The plates were incubated with the MTT solution at 37 °C for 10 min. After incubation, the samples were centrifuged at 15,000× g for 2 min. The excess liquid was removed, and a DMSO solution was used to dissolve the formed formazan crystals. After dissolution, the amount of formazan is measured spectrophotometrically at λ = 580 nm.
# [4] = system: isolated rat brain synaptosomes; assay: Neurotoxicity: reduced glutathione (GSH) level in synaptosomes, substances applied alone; type: cell-based; conditions: 50 µM applied alone, 1 h, compared to control
# Method: as §1, §2, §3, §4
# [5] = system: isolated rat brain mitochondria; assay: Neurotoxicity: MDA production in brain mitochondria, substances applied alone; type: cell-based; conditions: 50 µM applied alone, compared to control
# Method: as §1, §2, §3
# To the mitochondria was added 0.3 mL of 0.2% thiobarbituric acid and 0.25 mL of sulfuric acid (0.05 M), and the mixture was boiled for 30 min. After boiling, the tubes were placed on ice, and 0.4 mL of n-butanol was added to each, then centrifuged at 3500× g for 10 min. The amount of MDA was determined spectrophotometrically at 532 nm.
# [6] = system: isolated rat brain mitochondria; assay: Neurotoxicity: GSH level in brain mitochondria, substances applied alone; type: cell-based; conditions: 50 µM applied alone, compared to control
# Method: as §1, §2
# […]. After centrifugation of the homogenate at 6000× g, a 0.04% solution of DTNB was added to the supernatant to give a yellow color, the determination being spectrophotometric at 412 nm.
# [7] = system: isolated rat brain microsomes; assay: Neurotoxicity: MDA production in brain microsomes, substances applied alone; type: cell-based; conditions: 50 µM applied alone, compared to control
# Method: (§5) The brain was homogenized in 9 volume parts of 0.1 M Tris buffer containing: 0.1 mM dithiothreitol, 0.1 mM phenylmethylsulfonyl fluoride, 0.2 mM EDTA, 1.15% KCl, and 20% (v/v) glycerol (pH 7.4). The resulting homogenate was centrifuged twice at 17,000× g for 30 min. The supernatants from the two centrifugations were pooled and centrifuged twice at 100,000× g for 1 h. The pellet was frozen in 0.1 M Tris buffer.
# (§6) After completion of incubation of the microsomes with the substances and toxic agent, the reaction was stopped by the addition of 0.5 mL of 20% trichloroacetic acid, followed by 0.5 mL of 0.67% thiobarbituric acid. The ongoing reactions are associated with the formation of a colored complex between the malondialdehyde formed and thiobarbituric acid. The determination of MDA was spectrophotometric at 535 nm. A molar extinction coefficient of […] was used for the calculation.
# [8] = system: isolated rat brain microsomes; assay: Fe2+/AA-induced non-enzyme lipid peroxidation model: MDA production; type: cell-based; conditions: 50 µM in combination with Fe2+/AA, compared to the toxic agent
# Method: as §5
# Non-enzyme-induced lipid peroxidation was induced with 20 μM ferrous sulfate solution and 0.5 mM ascorbic acid solution [62].
# as §6
# [9] = molecular target: T1, human recombinant MAOA enzyme (hMAOA) (Homo sapiens, UniProt P21397); assay: Human recombinant MAOA enzyme activity (fluorometric, Amplex Red); type: biochemical; conditions: read-out: IC50 (EC50), (µM ± SD) hMAOA
# T1 sequence (P21397 1-527): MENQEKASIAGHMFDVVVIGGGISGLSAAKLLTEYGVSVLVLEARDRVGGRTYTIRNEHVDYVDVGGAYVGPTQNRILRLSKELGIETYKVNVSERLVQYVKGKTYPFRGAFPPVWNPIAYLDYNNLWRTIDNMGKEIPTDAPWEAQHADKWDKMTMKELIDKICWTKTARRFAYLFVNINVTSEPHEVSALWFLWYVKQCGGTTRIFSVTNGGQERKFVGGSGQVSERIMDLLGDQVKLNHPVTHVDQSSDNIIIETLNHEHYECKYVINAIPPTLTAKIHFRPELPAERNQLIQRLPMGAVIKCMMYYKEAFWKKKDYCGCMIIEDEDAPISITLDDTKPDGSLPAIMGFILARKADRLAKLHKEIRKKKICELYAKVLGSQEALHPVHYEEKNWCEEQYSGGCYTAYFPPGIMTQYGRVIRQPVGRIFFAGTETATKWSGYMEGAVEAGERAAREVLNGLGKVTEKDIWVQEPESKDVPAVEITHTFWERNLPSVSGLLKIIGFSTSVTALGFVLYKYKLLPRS
# [10] = molecular target: T2, human recombinant MAOB enzyme (hMAOB) (Homo sapiens, UniProt P27338); assay: Human recombinant MAOB enzyme activity (fluorometric, Amplex Red); type: biochemical; conditions: for inhibition at 1 µM: compared to control (pure hMAOB); for IC50: read-out: IC50 (EC50), (µM ± SD) hMAOB;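 on all read-outs here: tyramine as substrate, H2O2 formation detected by horseradish peroxidase coupled Amplex Red fluorescence read at 570 and 690 nm, compounds incubated with enzyme 30 min at 37 °C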
# T2 sequence (P27338 1-520): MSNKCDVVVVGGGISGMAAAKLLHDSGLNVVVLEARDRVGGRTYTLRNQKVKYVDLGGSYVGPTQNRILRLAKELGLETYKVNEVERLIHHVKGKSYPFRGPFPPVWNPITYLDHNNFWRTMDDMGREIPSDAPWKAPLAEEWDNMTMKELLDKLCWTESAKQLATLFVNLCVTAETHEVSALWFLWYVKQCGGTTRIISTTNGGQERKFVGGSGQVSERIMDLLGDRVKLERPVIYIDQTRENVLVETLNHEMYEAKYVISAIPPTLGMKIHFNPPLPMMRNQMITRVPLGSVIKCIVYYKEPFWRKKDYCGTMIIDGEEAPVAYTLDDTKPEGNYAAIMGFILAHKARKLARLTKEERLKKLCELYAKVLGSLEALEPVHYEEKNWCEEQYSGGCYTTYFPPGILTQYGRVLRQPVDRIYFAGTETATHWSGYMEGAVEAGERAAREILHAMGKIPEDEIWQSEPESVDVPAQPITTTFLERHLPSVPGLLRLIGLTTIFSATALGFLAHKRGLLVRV
# [11] = pH 7.4, 50 µM, 4 h, 25 °C; Pe calculated in 10^−6 cm/s, presented as −logPe
# [12] = system: isolated rat brain mitochondria; assay: t-BuOOH-induced oxidative stress model: GSH level; conditions: 50 µM in combination with t-BuOOH (75 µM), compared to the toxic agent
# [13] = system: isolated rat brain mitochondria; assay: t-BuOOH-induced oxidative stress model: MDA production; conditions: 50 µM in combination with t-BuOOH (75 µM), compared to the toxic agent
IC50 [9],SI: hMAOB selectivity index = IC50(hMAOA)/IC50(hMAOB) [10],inhibition at 1 µM [10],IC50 [10],PAMPA BBB −logPe [11],Compound,decrease in synaptosomal viability by toxic agent alone [1],"decrease in GSH level by toxic agent alone ([2]; toxic agent applied alone at 150 µM, compared to control)",decrease of synaptosomal viability [3],decrease of glutathione (GSH) level [4],increase of MDA production [5],decrease of GSH level [6],increase of MDA production [7],preservation of GSH level [2],decrease of MDA production [8],preservation of GSH level [12],reduction of MDA production [13]
,,,,,"NCCc1cc(O)c(O)cc1O [6-OHDA, 6-hydroxydopamine, reference compound]",50%,50%,,,,,,,,,
> 100 µM,>204,45%,0.49 ± 0.09 µM,4.464 ± 0.026 and 4.464,CCOC(=O)c1cc(-c2ccc(Br)cc2)n(CCC(=O)NN=Cc2cc(OC)c(O)c(OC)c2)c1C [8d],,,20%,15%,40%,15%,30%,70%,54%,80%,38%
> 100 µM,>123,25%,0.815 ± 0.2 µM,4.601 ± 0.040,CCOC(=O)c1cc(-c2ccc(Br)cc2)n(CC(=O)NN=Cc2ccc([N+](=O)[O-])cc2)c1C [7c],,,35%,20%,53%,25%,51%,50%,35%,40%,18%
> 100 µM,>204,45%,0.491 ± 0.09 µM,4.819 ± 0.004 and 4.819,CCOC(=O)c1cc(-c2ccc(Br)cc2)n(CC(=O)NN=Cc2cc(OC)c(O)c(OC)c2)c1C [7d],,,20%,15%,34%,15%,27%,70%,52%,80%,35%
